# From ChEMBL document CHEMBL1151449, “In vitro activity of DC-159a, a new broad-spectrum fluoroquinolone, compared with that of other agents against drug-susceptible and -resistant pneumococci” (2008)
# What was measured:
# Format in all cases: functional
# Streptococcus pneumoniae [1] = assay: Antibacterial activity against macrolide-, quinolone-susceptible and penicillin-intermediate Streptococcus pneumoniae HMC 99 after 50 passages by broth microdilution method
# Streptococcus pneumoniae [2] = assay: Antibacterial activity against penicillin-, macrolide-susceptible and quinolone-resistant Streptococcus pneumoniae HMC 1074 harboring S81F, E85K mutation in quinolone-resistant determining regions of GyrA gene, S79F mutation in QRDR of ParC gene and I460V mutation in QRDR of ParE gene after 27 passages with gemifloxacin measured after 10 daily antibiotic-free subculturing by multi-step resistance selection technique
# Streptococcus pneumoniae [3] = assay: Antibacterial activity against Streptococcus pneumoniae HMC 5041 harboring S81F and S79F mutation in quinolone-resistant determining regions of GyrA and ParC genes respectively by agar dilution method
# Streptococcus pneumoniae [4] = assay: (§1) Antibacterial activity against macrolide-, quinolone-susceptible and penicillin-intermediate Streptococcus pneumoniae HMC 100 harboring S81Y mutation in quinolone-resistant determining regions of GyrA gene after 22 passages with moxifloxacin measured after 10 daily antibiotic-free subculturing by multi-step resistance selection technique
# Streptococcus pneumoniae [5] = assay: (§2) Antibacterial activity against Streptococcus pneumoniae HMC 1066 harboring S81F mutation in quinolone-resistant determining regions of GyrA gene, S79F mutation in QRDR of ParC gene and I460V mutation in QRDR of ParE gene by agar dilution method
# Streptococcus pneumoniae [6] = assay: Antibacterial activity against azithromycin-resistant Streptococcus pneumoniae […] by agar dilution method
# Streptococcus pneumoniae [7] = assay: Antibacterial activity against Streptococcus pneumoniae HMC 1072 harboring S81F mutation in quinolone-resistant determining regions of GyrA gene, S79Y mutation in QRDR of ParC gene and I460V mutation in QRDR of ParE gene by agar dilution method
# Streptococcus pneumoniae [8] = assay: Antibacterial activity against penicillin-resistant Streptococcus pneumoniae […] by agar dilution method
# Streptococcus pneumoniae [9] = assay: Antibacterial activity against penicillin-resistant and quinolone-susceptible Streptococcus pneumoniae HMC 3583 expressing mefA and harboring S81F mutation in quinolone-resistant determining regions of GyrA gene, D83N mutation in QRDR of ParC gene and I460V mutation in QRDR of ParE gene after 49 passages with DC-159a measured after 10 daily antibiotic-free subculturing by multi-step resistance selection technique
# Streptococcus pneumoniae [10] = assay: Antibacterial activity against Streptococcus pneumoniae HMC 2538 harboring S81Y mutation in quinolone-resistant determining regions of GyrA gene, S79F, K137N mutation in QRDR of ParC gene and I460V mutation in QRDR of ParE gene showing efflux to ciprofloxacin, levofloxacin, gatifloxacin by agar dilution method
# Streptococcus pneumoniae [11] = assay: Antibacterial activity against quinolone-susceptible and penicillin-intermediate Streptococcus pneumoniae HMC 5048 expressing mefA after 50 passages by broth microdilution method
# Streptococcus pneumoniae [12] = assay: Antibacterial activity against macrolide-, quinolone-susceptible and penicillin-intermediate Streptococcus pneumoniae HMC 99 by broth microdilution method
# Streptococcus pneumoniae [13] = assay: Antibacterial activity against Streptococcus pneumoniae HMC 1062 harboring S81F mutation in quinolone-resistant determining regions of GyrA gene, S79F mutation in QRDR of ParC gene and I460V mutation in QRDR of ParE gene by agar dilution method
# Streptococcus pneumoniae [14] = assay: Antibacterial activity against penicillin-susceptible Streptococcus pneumoniae ATCC 49619 by agar dilution method
# Streptococcus pneumoniae [15] = assay: as §1, with “99” for “100”, “S81Y and S79Y” for “S81Y”, “and ParC genes respectively” for “gene”, “41” for “22”
# Streptococcus pneumoniae [16] = assay: Antibacterial activity against penicillin-resistant and quinolone-susceptible Streptococcus pneumoniae HMC 228 expressing ermB by broth microdilution method
# Streptococcus pneumoniae [17] = assay: Antibacterial activity against penicillin-, macrolide- and quinolone-susceptible Streptococcus pneumoniae HMC 63 harboring S81F mutation in quinolone-resistant determining regions of GyrA gene, D83Y mutation in QRDR of ParC gene and I460V mutation in QRDR of ParE gene after 34 passages with gemifloxacin measured after 10 daily antibiotic-free subculturing by multi-step resistance selection technique
# Streptococcus pneumoniae [18] = assay: Antibacterial activity against Streptococcus pneumoniae HMC 1147 harboring S81F mutation in quinolone-resistant determining regions of GyrA gene, S79F mutation in QRDR of ParC gene and I460V mutation in QRDR of ParE gene showing efflux to gemifloxacin by agar dilution method
# Streptococcus pneumoniae [19] = assay: Antibacterial activity against Streptococcus pneumoniae HMC 1068 harboring E85K mutation in quinolone-resistant determining regions of GyrA gene, S79Y, K137N mutation in QRDR of ParC gene and I460V mutation in QRDR of ParE gene showing efflux to ciprofloxacin, levofloxacin by agar dilution method
# Streptococcus pneumoniae [20] = assay: Antibacterial activity against Streptococcus pneumoniae HMC 2527 harboring S81Y mutation in quinolone-resistant determining regions of GyrA gene, S79F, K137N mutation in QRDR of ParC gene and I460V mutation in QRDR of ParE gene by agar dilution method
# Streptococcus pneumoniae [21] = assay: Antibacterial activity against penicillin- and quinolone-susceptible Streptococcus pneumoniae HMC 5055 expressing mefA by broth microdilution method
# Streptococcus pneumoniae [22] = assay: Antibacterial activity against Streptococcus pneumoniae HMC 3041 after 50 passages by broth microdilution method
# Streptococcus pneumoniae [23] = assay: Antibacterial activity against penicillin-, quinolone-resistant and macrolide-susceptible Streptococcus pneumoniae HMC 1058 harboring S79F, K137N mutation in quinolone-resistant determining regions of ParC gene and 460V mutation in QRDR of ParE gene by broth microdilution method
# Streptococcus pneumoniae [24] = assay: Antibacterial activity against Streptococcus pneumoniae HMC 1151 harboring D83N, K137N mutation in quinolone-resistant determining regions of ParC gene and I460V mutation in QRDR of ParE gene showing efflux to ciprofloxacin, gemifloxacin by agar dilution method
# Streptococcus pneumoniae [25] = assay: Antibacterial activity against azithromycin-susceptible Streptococcus pneumoniae ATCC 49619 by agar dilution method
# Streptococcus pneumoniae [26] = assay: as §2, with “against penicillin-, macrolide-susceptible and quinolone-resistant” for “against”, “1074” for “1066”, “broth microdilution” for “agar dilution”
# Streptococcus pneumoniae [27] = assay: Antibacterial activity against quinolone-susceptible and penicillin-intermediate Streptococcus pneumoniae HMC 441 expressing ermB by broth microdilution method
# Streptococcus pneumoniae [28] = assay: Antibacterial activity against Streptococcus pneumoniae HMC 1060 harboring S81F mutation in quinolone-resistant determining regions of GyrA gene, S79F, K137N mutation in QRDR of ParC gene and I460V mutation in QRDR of ParE gene by agar dilution method
# Streptococcus pneumoniae [29] = assay: Antibacterial activity against Streptococcus pneumoniae HMC 1150 harboring S81C mutation in quinolone-resistant determining regions of GyrA gene, S79F mutation in QRDR of ParC gene and I460V mutation in QRDR of ParE gene by agar dilution method
# Streptococcus pneumoniae [30] = assay: Antibacterial activity against quinolone-susceptible Streptococcus pneumoniae ATCC 49619 by agar dilution method
# Streptococcus pneumoniae [31] = assay: as §1, with “S79Y” for “S81Y”, “ParC” for “GyrA”, “34” for “22”, “gemifloxacin” for “moxifloxacin”
# Streptococcus pneumoniae [32] = assay: Antibacterial activity against Streptococcus pneumoniae HMC 1074 harboring S81F mutation in quinolone-resistant determining regions of GyrA gene, S79F mutation in QRDR of ParC gene and I460V mutation in QRDR of ParE gene by agar dilution method
# Streptococcus pneumoniae [33] = assay: Antibacterial activity against penicillin- and quinolone-susceptible Streptococcus pneumoniae HMC 5055 expressing mefA after 50 passages by broth microdilution method
Structure (SMILES),MIC (Streptococcus pneumoniae [2]) [µg/mL],MIC (Streptococcus pneumoniae [3]) [µg/mL],MIC (Streptococcus pneumoniae [4]) [µg/mL],MIC (Streptococcus pneumoniae [5]) [µg/mL],MIC (Streptococcus pneumoniae [7]) [µg/mL],MIC (Streptococcus pneumoniae [9]) [µg/mL],MIC (Streptococcus pneumoniae [10]) [µg/mL],MIC (Streptococcus pneumoniae [11]) [µg/mL],MIC (Streptococcus pneumoniae [13]) [µg/mL],MIC (Streptococcus pneumoniae [15]) [µg/mL],MIC (Streptococcus pneumoniae [16]) [µg/mL],MIC (Streptococcus pneumoniae [17]) [µg/mL],MIC (Streptococcus pneumoniae [18]) [µg/mL],MIC (Streptococcus pneumoniae [19]) [µg/mL],MIC (Streptococcus pneumoniae [20]) [µg/mL],MIC (Streptococcus pneumoniae [21]) [µg/mL],MIC (Streptococcus pneumoniae [22]) [µg/mL],MIC (Streptococcus pneumoniae [23]) [µg/mL],MIC (Streptococcus pneumoniae [24]) [µg/mL],MIC (Streptococcus pneumoniae [27]) [µg/mL],further results
COc1c(N2CCNC(C)C2)c(F)cc2c(=O)c(C(=O)O)cn(C3CC3)c12 (stereo not drawn) [GATIFLOXACIN],16,4,4,4,8,4,8,0.5,16,16,0.5,8,8,8,16,0.25,0.5,4,2,0.25,MIC (Streptococcus pneumoniae [1]): 0.5 µg/mL; MIC50 (Streptococcus pneumoniae [6]): 0.5 µg/mL; MIC90 (Streptococcus pneumoniae [6]): 0.5 µg/mL; MIC50 (Streptococcus pneumoniae [8]): 0.5 µg/mL; MIC90 (Streptococcus pneumoniae [8]): 4 µg/mL; MIC (Streptococcus pneumoniae [12]): 0.12 µg/mL; MIC50 (Streptococcus pneumoniae [14]): 0.5 µg/mL; MIC90 (Streptococcus pneumoniae [14]): 1 µg/mL; MIC50 (Streptococcus pneumoniae [25]): 0.5 µg/mL; MIC90 (Streptococcus pneumoniae [25]): 4 µg/mL; MIC (Streptococcus pneumoniae [26]): 4 µg/mL; MIC (Streptococcus pneumoniae [28]): 4 µg/mL; MIC (Streptococcus pneumoniae [29]): 4 µg/mL; MIC50 (Streptococcus pneumoniae [30]): 0.5 µg/mL; MIC90 (Streptococcus pneumoniae [30]): 0.5 µg/mL; MIC (Streptococcus pneumoniae [31]): 4 µg/mL; MIC (Streptococcus pneumoniae [32]): 4 µg/mL; MIC (Streptococcus pneumoniae [33]): 0.5 µg/mL
COc1c(N2C[C@@H]3CCCN[C@@H]3C2)c(F)cc2c(=O)c(C(=O)O)cn(C3CC3)c12 [MOXIFLOXACIN],16,4,1,2,4,2,2,0.125,4,4,0.12,4,4,4,4,0.25,0.25,2,0.25,0.12,MIC (Streptococcus pneumoniae [28]): 2 µg/mL; MIC (Streptococcus pneumoniae [29]): 1 µg/mL; MIC (Streptococcus pneumoniae [31]): 2 µg/mL; MIC (Streptococcus pneumoniae [32]): 2 µg/mL; MIC (Streptococcus pneumoniae [33]): 0.125 µg/mL
